Source: article PMC10451377, “Rationally Designed Pyrimidine Compounds: Promising Novel Antibiotics for the Treatment of Staphylococcus aureus-Associated Bovine Mastitis” (Antibiotics, 2023)
≈ marks a conversion by molar mass, not a printed value. Entries after “also recorded” stand apart in the source; their conditions may differ.

How the values were obtained:
MTT assay = type: cell-based; details: bovine, MAC-T cells
[1] = test system: Staphylococcus epidermidis ATCC 12228; test: Broth microdilution MIC; details: ATCC12228, read-out: Broth Microdilution MIC
Metabolic stability = type: in vitro ADME; details: mouse, CD-1 female mice liver S9 fraction, 60 min, mono-exponential decay model, read-out: Half-life (T1/2)
Method: All incubations were performed minimally in triplicate. A total of 1 mL of mice liver S9 fraction (XenoTech, Kansas City, KS, USA) was fortified with 50 μL of NADPH-regenerating solution A and 10 μL of solution B (Corning BD Biosciences catalog no. 451200) and preincubated at 37 °C for 5 min prior to the addition of PC206. Immediately after fortification of PC206 into the mice liver S9 fraction containing the NADPH-regeneration system, the sampling points were taken at 2, 5, 10, 15, 30, 45 and 60 min for metabolic stability experiments (i.e., the substrate concentration was 10 μM). Samples of 50 μL were taken and mixed with 250 μL of the internal standard solution (caffeine) in microcentrifuge tubes. The samples were centrifuged at 12,000× g for 10 min and 200 μL of the supernatant was transferred into an injection vial for HPLC-MS analysis. A Q Exactive Orbitrap Mass Spectrometer was interfaced with a Vanquish Flex UHPLC system (Thermo Fisher Scientific, Rochester, NY, USA). […] Targeted drug quantification was performed by MS detection using specific precursor masses based on monoisotopic masses (i.e., [M + H]^+ ions). Quantification was performed by extracting specific precursor ions using a 5 ppm mass window.

[2] = test system: Escherichia coli ATCC 35695; test: Broth microdilution MIC; details: ATCC35695, read-out: Broth Microdilution MIC
S. chromogenes = test: Susceptibility of isolate panel (MIC50, MIC90, range); type: cell-based
Description: (§1) Reference strains for this study (S. aureus ATCC 29213, ATCC 29740 [bovine mastitis strain Newbould], S. epidermidis ATCC 12228, E. coli ATCC 35695, E. faecalis ATCC 29212) were obtained from the American Type Culture Collection (ATCC, Rockville, MD). S. aureus strains CMRSA-10 and CMRSA-2 were obtained from the Laboratoire de santé publique du Québec (LSPQ, Sainte-Anne-de-Bellevue, QC, Canada) and are Canadian CA-MRSA USA-300 and HA-MRSA USA-100 clones, respectively. The strain E. coli imp4213 (lptD), used as a control in MIC assays, is a derivative of E. coli ATCC 35695 (E. coli MC4100) with an increased membrane permeability. […] Other MRSA strains used in this study are clinical isolates of human origin obtained from the microbiology laboratory of the Centre Hospitalier Universitaire de Sherbrooke (CHUS, Sherbrooke, QC, Canada). Bovine mastitis strains (S. aureus, S. chromogenes, S. haemolyticus, S. hominis, S. simulans) were obtained from the Canadian Bovine Mastitis and Milk Quality Research Network (CBRQMN, St-Hyacinthe, QC, Canada). Among these strains, S. aureus 2117 is a high producer of biofilm and was used in the biofilm-eradication assay. S. epidermidis isolates were provided by Centre de Recherche en Infectiologie (CRI) de Québec (Québec, QC, Canada).
(§2) The antibacterial activity of the most promising compound, PC206, was also evaluated against larger groups of clinical isolates of human and animal origin. The MIC50 and MIC90 values represented the concentrations of drug required to inhibit the growth of 50% and 90% of the bacterial strains tested, respectively.

S. epidermidis = test: as above; type: cell-based; details: S. epidermidis, 10 isolates
Description: as §1, §2

S. simulans = test: as above; type: cell-based
Description: as §1, §2

S. hominis = test: as above; type: cell-based; details: S. hominis, 10 isolates
Description: as §1, §2

[3] = test system: Bacillus subtilis xpt-lacZ; test: Broth microdilution MIC; type: cell-based; details: B. subtilis xpt-lacZ, read-out: Broth Microdilution MIC
S. haemolitycus = test: Susceptibility of isolate panel (MIC50, MIC90, range); type: cell-based, S. haemolyticus
Description: as §1, §2

[4] = test system: all reference staphylococci strains tested, including MRSA; test: Broth microdilution MIC, summary over reference staphylococci; details: Staphylococcus aureus, read-out: MIC ranging, against all reference staphylococci strains tested
[5] = Initial safety assessment in cows; type: in vivo; details: single intramammary infusion of 100, 250 or 500 mg
Method: The innocuity of PC206 was evaluated in cows, as previously described for other test substances. Following morning milking, each of the four mammary gland quarters […] was infused with various doses of PC206 (100, 250, 500 mg) or saline as a negative control. […] Cows were milked using an individual quarter-milking unit in order to measure individual quarter-milk production. PC206 concentration in milk was also measured; milk samples were diluted with an equal volume of isopropanol and washed 3 times with hexane. PC206 was extracted using ethyl acetate, filtered on Na2SO4, and evaporated. The dried samples were diluted 80:20 in ACN:H2O containing an internal standard. The content of PC206 was determined using single-ion monitoring (SIMS) on UPLC-MS.

CCCCCCNc1cc(N)nc(N)n1 [PC206]
CC50 at 24 h (MTT assay; 24 h): 317 ± 43 µM | CC50 at 24 h (MTT assay; converted from μM): 66 µg/mL | MIC [1]: 4 µg/mL (≈ 19.1 µM) | half-life at 10 µM (Metabolic stability): 1.39 h | MIC [2]: > 128 µg/mL | MIC90 (S. chromogenes): 128 µg/mL (≈ 612 µM) | MIC Range (S. chromogenes; S. chromogenes, 5 isolates): 16 to 128 µg/mL | MIC50 (S. chromogenes; S. chromogenes, 5 isolates, read-out: MIC50): 32 µg/mL (≈ 153 µM) | MIC Range (S. epidermidis): 2 to 16 µg/mL | MIC50 (S. epidermidis; Staphylococcus epidermidis, read-out: MIC50): 4 µg/mL (≈ 19.1 µM) | MIC90 (S. epidermidis; Staphylococcus epidermidis, read-out: MIC90): 8 µg/mL (≈ 38.2 µM) | MIC Range (S. simulans; S. simulans, 5 isolates): 64 to 128 µg/mL | MIC90 (S. simulans; Staphylococcus simulans): 128 µg/mL (≈ 612 µM) | MIC50 (S. simulans; Staphylococcus simulans, S. simulans, 5 isolates, read-out: MIC50): 64 µg/mL (≈ 306 µM) | MIC Range (S. hominis): 1 to 32 µg/mL | MIC50 (S. hominis; Staphylococcus hominis, read-out: MIC50): 8 µg/mL (≈ 38.2 µM) | MIC90 (S. hominis; Staphylococcus hominis, read-out: MIC90): 32 µg/mL (≈ 153 µM) | MIC [3]: 128 µg/mL (≈ 612 µM) | MIC Range (S. haemolitycus; S. haemolitycus, 10 isolates): 4 to 128 µg/mL | MIC90 (S. haemolitycus; Staphylococcus haemolyticus): 128 µg/mL (≈ 612 µM) | MIC50 (S. haemolitycus; Staphylococcus haemolyticus, S. haemolitycus, 10 isolates, read-out: MIC50): 64 µg/mL (≈ 306 µM) | MIC [4]: 4 to 8 µg/mL (≈ 19.1 to 38.2 µM) | Body temperature [5]: around 38 °C | Redness or swelling of quarters at milking [5]: Neither redness nor swelling was observed | Somatic cell counts and quarter-milk production ([5]; 69 h): remained unaffected; also recorded: did not impact somatic cells count
